# Data published in article PMC11705230, “Discovery and Synthetic Applications of a NAD(P)H-Dependent Reductive Aminase from Rhodococcus erythropolis” (ACS Catalysis, 2024).
# Target: T1, RytRedAm (Rhodococcus erythropolis, UniProt Z9GXG8TLZ1)
# T1 construct: recombinant, N-terminal His-tag in pET-28a(+), E. coli BL21(DE3); Ni-NTA purified; homodimer; printed residues R35, I69, T90, D166, Y235
# T1 sequence (Z9GXG8TLZ1 1-291): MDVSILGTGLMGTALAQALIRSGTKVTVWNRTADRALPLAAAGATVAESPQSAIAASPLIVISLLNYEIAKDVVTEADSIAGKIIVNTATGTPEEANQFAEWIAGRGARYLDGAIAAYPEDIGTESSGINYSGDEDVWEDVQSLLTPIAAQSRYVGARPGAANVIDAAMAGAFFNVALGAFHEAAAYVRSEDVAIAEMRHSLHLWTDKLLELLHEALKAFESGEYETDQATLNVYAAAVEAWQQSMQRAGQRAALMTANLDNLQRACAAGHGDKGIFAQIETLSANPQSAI
# Test: X-ray crystallography
# Assay type: binding
# Details: cocrystallized with NADP+, nicotinamide ring and ribose density absent; cofactor site; pH 7.0
smiles,measurement,value
Nc1ncnc2c1ncn2[C@@H]1O[C@H](COP(=O)(O)OP(=O)(O)O)[C@@H](O)[C@H]1OP(=O)(O)O [ADP-2RP],X-ray crystallography,crystals obtained with the latter gave an ADP-2′-ribose phosphate (ADP-2RP) complex
